The values below come from patent US9102752B2, “Peptide vaccine for prevention and immunotherapy of dementia of the Alzheimer's type” (United Biomedical, Inc., priority 2013, dated 2015).

The subject of assay [1] is anti-Aβ antibodies in sera from vaccinated baboons. In words: Epitope mapping, 10-mer peptide-based ELISA with sera from vaccinated baboons. To be noted: peptide as plate coating.
Description: Fine specificity analyses of anti-Aβ antibodies in immunized hosts or vaccines were determined by epitope mapping.
These nested peptides were used individually to coat microtiter wells as solid-phase immunoadsorbents for ELISA tests. The positive control ELISA plate was coated with Aβ1-28. They were tested for antibody binding with the sera from the four immunized baboons, from weeks 0, 10, 84 and 111. Baboon sera were serially diluted and assayed on plates coated with a 10-mer peptide at 5 ug/mL.
In assay [2] the test system is anti-Aβ antibodies in macaque antisera. Nature of the assay: Specificity analysis (10-mer peptide ELISA) of antisera from Cynomolgus macaques. It is filed as binding.
Assay [3] concerns anti-Aβ antibodies in sera of vaccinated patients. In words: Epitope mapping, competitive binding inhibition EIA with patient sera (10-mer peptides, IC50). Details: species or system human; Epitope mapping, fine specificity analysis, serum of subject P210: unit not given here. As to conditions: for Epitope mapping, fine specificity analysis, serum of subject P101: serum 16 wpi of vaccinated patient P101; for Epitope mapping, fine specificity analysis, serum of subject P102: serum 16 wpi of vaccinated patient P102; for Epitope mapping, fine specificity analysis, serum of subject P103: serum 16 wpi of vaccinated patient P103; for Epitope mapping, fine specificity analysis, serum of subject P104: serum 16 wpi of vaccinated patient P104; for Epitope mapping, fine specificity analysis, serum of subject P105: serum 16 wpi of vaccinated patient P105; for Epitope mapping, fine specificity analysis, serum of subject P106: serum 16 wpi of vaccinated patient P106; for Epitope mapping, fine specificity analysis, serum of subject P107: serum 16 wpi of vaccinated patient P107; for Epitope mapping, fine specificity analysis, serum of subject P108: serum 16 wpi of vaccinated patient P108; for Epitope mapping, fine specificity analysis, serum of subject P109: serum 16 wpi of vaccinated patient P109; for Epitope mapping, fine specificity analysis, serum of subject P201: serum 16 wpi of vaccinated patient P201; for Epitope mapping, fine specificity analysis, serum of subject P202: serum 16 wpi of vaccinated patient P202; for Epitope mapping, fine specificity analysis, serum of subject P203: serum 16 wpi of vaccinated patient P203; for Epitope mapping, fine specificity analysis, serum of subject P204: serum 16 wpi of vaccinated patient P204; for Epitope mapping, fine specificity analysis, serum of subject P205: serum 16 wpi of vaccinated patient P205; for Epitope mapping, fine specificity analysis, serum of subject P206: serum 16 wpi of vaccinated patient P206; for Epitope mapping, fine specificity analysis, serum of subject P207: serum 16 wpi of vaccinated patient P207; for Epitope mapping, fine specificity analysis, serum of subject P208: serum 16 wpi of vaccinated patient P208; for Epitope mapping, fine specificity analysis, serum of subject P209: serum 16 wpi of vaccinated patient P209; for Epitope mapping, fine specificity analysis, serum of subject P210: serum 16 wpi of vaccinated patient P210.

[4] abbreviates: antisera of macaques given UBI AD Vaccine 150 μg/dose, 9 WPI.
Setting [5] is: antisera of macaques given UBI AD Vaccine 150 μg/dose, 15 WPI.
Where [6] appears, read: antisera of macaques given UBI AD Vaccine 750 μg/dose, 9 WPI.
The mark [7] stands for this setting: antisera of macaques given UBI AD Vaccine 750 μg/dose, 15 WPI.

Turning to 17 (AEFRHDSGYE) [Peptide 17], the “ELISA Titer titers (Log10)” value was found to be 0.25 Log10 in assay [1] (0 weeks post immunization), 0.35 Log10 in assay [1] (10 weeks post immunization), 0.25 Log10 in assay [1] (84 weeks post immunization) and 0.19 Log10 in assay [1] (111 weeks post immunization).

Take 18 (EFRHDSGYEV) [Peptide 18]: the “ELISA Titer titers (Log10)” value is given as 0.24 Log10 in assay [1] (0 weeks post immunization), 0.30 Log10 in assay [1] (10 weeks post immunization), 0.18 Log10 in assay [1] (84 weeks post immunization) and 0.18 Log10 in assay [1] (111 weeks post immunization).

With 19 (FRHDSGYEVH) [Peptide 19], the “ELISA Titer titers (Log10)” value came out at 0.20 Log10 in assay [1] (0 weeks post immunization), 0.40 Log10 in assay [1] (10 weeks post immunization), 0.22 Log10 in assay [1] (84 weeks post immunization) and 0.30 Log10 in assay [1] (111 weeks post immunization).

For the substance 20 (RHDSGYEVHH) [Peptide 20], the “ELISA Titer titers (Log10)” value in assay [1] (0 weeks post immunization) amounted to 0.23 Log10; in assay [1] (10 weeks post immunization) it was 0.34 Log10; in assay [1] (84 weeks post immunization), 0.27 Log10; in assay [1] (111 weeks post immunization) it was 0.41 Log10.

For 21 (HDSGYEVHHQ) [Peptide 21], the “ELISA Titer titers (Log10)” value was found to be 0.21 Log10 in assay [1] (0 weeks post immunization), 0.40 Log10 in assay [1] (10 weeks post immunization), 0.18 Log10 in assay [1] (84 weeks post immunization) and 1.14 Log10 in assay [1] (111 weeks post immunization).

Consider 22 (DSGYEVHHQK) [Peptide 22], for which the “ELISA Titer titers (Log10)” value in assay [1] (0 weeks post immunization) is 0.32 Log10; in assay [1] (10 weeks post immunization) it was 0.78 Log10; in assay [1] (84 weeks post immunization), 0.64 Log10; in assay [1] (111 weeks post immunization), 0.76 Log10.

As for 23 (SGYEVHHQKL) [Peptide 23], the “ELISA Titer titers (Log10)” value in assay [1] (0 weeks post immunization) was 0.13 Log10; in assay [1] (10 weeks post immunization) it was 0.49 Log10; in assay [1] (84 weeks post immunization), 0.51 Log10; in assay [1] (111 weeks post immunization), 0.78 Log10.

For “28 (HHQKLVFFAE; PEPTIDE (1)..(10) Abeta 13-22 or APP 770(H684-E693); listed as Homo sapiens) [compound 28]”, the “Reactivity of antisera with peptide (specificity analysis ELISA)” value (shortened to “Reactivity of antisera with peptide”) in assay [2] (setting [4]) is on record as 0.044. For the same substance, the “Reactivity of antisera with peptide” value in assay [2] (setting [5]) amounted to 0.052. Besides, the “Reactivity of antisera with peptide” value in assay [2] (setting [6]) stood at 0.046. Moreover, the “Reactivity of antisera with peptide” value in assay [2] (setting [7]) was found to be 0.032. Also, in assay [3], the “Epitope mapping, fine specificity analysis, serum of subject P101” value (“Epitope mapping … of subject P101” for short) came to 0; the “Epitope mapping, fine specificity analysis, serum of subject P102” value (from here on “Epitope mapping … of subject P102”) is 0; the “Epitope mapping, fine specificity analysis, serum of subject P103” value (from here on “Epitope mapping … of subject P103”) worked out at 0; the “Epitope mapping, fine specificity analysis, serum of subject P104” value (from here on “Epitope mapping … of subject P104”) worked out at 0. In addition, in assay [3], the “Epitope mapping, fine specificity analysis, serum of subject P105” value (from here on “Epitope mapping … of subject P105”) came to 0; the “Epitope mapping, fine specificity analysis, serum of subject P106” value (from here on “Epitope mapping … of subject P106”) stood at 0; the “Epitope mapping, fine specificity analysis, serum of subject P107” value (from here on “Epitope mapping … of subject P107”) amounted to 0; the “Epitope mapping, fine specificity analysis, serum of subject P108” value (from here on “Epitope mapping … of subject P108”) stood at 0. Further, in assay [3], the “Epitope mapping, fine specificity analysis, serum of subject P109” value (from here on “Epitope mapping … of subject P109”) came out at 0; the “Epitope mapping, fine specificity analysis, serum of subject P201” value (from here on “Epitope mapping … of subject P201”) worked out at 0; the “Epitope mapping, fine specificity analysis, serum of subject P202” value (from here on “Epitope mapping … of subject P202”) is recorded as 0; the “Epitope mapping, fine specificity analysis, serum of subject P203” value (from here on “Epitope mapping … of subject P203”) was 0. In addition, in assay [3], the “Epitope mapping, fine specificity analysis, serum of subject P204” value (from here on “Epitope mapping … of subject P204”) turned out to be 0; the “Epitope mapping, fine specificity analysis, serum of subject P205” value (from here on “Epitope mapping … of subject P205”) is listed as 0; the “Epitope mapping, fine specificity analysis, serum of subject P206” value (from here on “Epitope mapping … of subject P206”) was found to be 0; the “Epitope mapping, fine specificity analysis, serum of subject P207” value (from here on “Epitope mapping … of subject P207”) stood at 0. In addition, in assay [3], the “Epitope mapping, fine specificity analysis, serum of subject P208” value (from here on “Epitope mapping … of subject P208”) turned out to be 0; the “Epitope mapping, fine specificity analysis, serum of subject P209” value (from here on “Epitope mapping … of subject P209”) is reported as 0; the “Epitope mapping, fine specificity analysis, serum of subject P210” value (from here on “Epitope mapping … of subject P210”) was determined as 0.

“29 (HQKLVFFAED; PEPTIDE (1)..(10) Abeta 14-23 or APP 770(H685-D694); listed as Homo sapiens) [compound 29]”: the “Reactivity of antisera with peptide” value in assay [2] (setting [4]) is recorded as 0.050. Further, the “Reactivity of antisera with peptide” value in assay [2] (setting [5]) worked out at 0.058. Also, the “Reactivity of antisera with peptide” value in assay [2] (setting [6]) is recorded as 0.047. In assay [2] (setting [7]), the “Reactivity of antisera with peptide” value is 0.050. Further, in assay [3], the “Epitope mapping … of subject P101” value turned out to be 0; the “Epitope mapping … of subject P102” value is 0; the “Epitope mapping … of subject P103” value amounted to 0; the “Epitope mapping … of subject P104” value was 0. For the same substance, in assay [3], the “Epitope mapping … of subject P105” value is reported as 0; the “Epitope mapping … of subject P106” value is given as 0; the “Epitope mapping … of subject P107” value was determined as 0; the “Epitope mapping … of subject P108” value was found to be 0. Besides, in assay [3], the “Epitope mapping … of subject P109” value is 0; the “Epitope mapping … of subject P201” value is on record as 0; the “Epitope mapping … of subject P202” value was determined as 0; the “Epitope mapping … of subject P203” value turned out to be 0. For the same substance, in assay [3], the “Epitope mapping … of subject P204” value turned out to be 0; the “Epitope mapping … of subject P205” value stood at 0; the “Epitope mapping … of subject P206” value was 0; the “Epitope mapping … of subject P207” value worked out at 0. For the same substance, in assay [3], the “Epitope mapping … of subject P208” value worked out at 0; the “Epitope mapping … of subject P209” value is reported as 0; the “Epitope mapping … of subject P210” value stood at 0.

Turning to “30 (QKLVFFAEDV; PEPTIDE (1)..(10) Abeta 15-24 or APP 770(Q686-V695); listed as Homo sapiens) [compound 30]”, the “Reactivity of antisera with peptide” value in assay [2] (setting [4]) came out at 0.043. For the same substance, in assay [2] (setting [5]), the “Reactivity of antisera with peptide” value is recorded as 0.055. In addition, the “Reactivity of antisera with peptide” value in assay [2] (setting [6]) was 0.062. Also, in assay [2] (setting [7]), the “Reactivity of antisera with peptide” value came out at 0.059. Further, in assay [3], the “Epitope mapping … of subject P101” value is on record as 0; the “Epitope mapping … of subject P102” value was 0; the “Epitope mapping … of subject P103” value came to 0; the “Epitope mapping … of subject P104” value amounted to 0. Besides, in assay [3], the “Epitope mapping … of subject P105” value is listed as 0; the “Epitope mapping … of subject P106” value was 0; the “Epitope mapping … of subject P107” value was 0; the “Epitope mapping … of subject P108” value is listed as 0. In assay [3], the “Epitope mapping … of subject P109” value is listed as 0; the “Epitope mapping … of subject P201” value came out at 0; the “Epitope mapping … of subject P202” value came to 0; the “Epitope mapping … of subject P203” value is 0. For the same substance, in assay [3], the “Epitope mapping … of subject P204” value is recorded as 0; the “Epitope mapping … of subject P205” value is on record as 0; the “Epitope mapping … of subject P206” value is given as 0; the “Epitope mapping … of subject P207” value came to 0. Further, in assay [3], the “Epitope mapping … of subject P208” value was 0; the “Epitope mapping … of subject P209” value came out at 0; the “Epitope mapping … of subject P210” value turned out to be 0.
